Reference: patent US8796219B2, “Target-activated cell/tissue-penetrating peptide for delivery of impermeable compounds and use thereof” (Nano Intelligent Biomedical Engineering Corporation Co. Ltd, priority 2009, dated 2014)
Where no end group is shown, it is not given here.

Tests used:
[1] = system: tumor cell line (CT-26); assay: Cell-penetrating ability in tumor cell line (FACS and confocal laser scanning microscopy of FITC fluorescence); type: cell-based, mouse
Method: (§1) In order to examine the cell-penetrating ability of the target-activated cell/tissue-penetrating peptide prepared in Example 1, the C-terminal region of the prepared peptide was labeled with the fluorescence marker FITC, and the fluorescence-labeled peptide was inoculated into each of a normal cell line (ATCC) and a tumor cell line (CT-26, KCLB (Korea cell line bank) 80009).
(§2) 1 hour after the inoculation, the fluorescence intensities of the cell lines were measured using FACS, and the results of the measurement are shown in FIG. 2. […] In FIG. 2, “(a)” indicates the fluorescence intensity of the normal cell line, and “(b)” indicates the fluorescence intensity of the tumor cell line.
(§3) Also, whether the peptide penetrated into the cells was observed by a confocal laser scanning microscope. […] In FIG. 3, “(a)” indicates the cell penetration of the peptide in the tumor cell line group, and “(b)” indicates the cell penetration of the peptide in the normal cell line group.
(§4) The target-activated cell/tissue-penetrating peptide-anticancer protein conjugate prepared in Example 2 above was inoculated into each of a normal cell line (ATCC) and a tumor cell line (CT-26, KCLB (Korea cell line bank) 80009). 1 hour after the inoculation, the penetration of the peptide-gelonin conjugate into the cells was observed by a confocal laser scanning microscope (FIG. 4).

[2] = system: normal cell line (ATCC); assay: Cell-penetrating ability in normal cell line (FACS and confocal laser scanning microscopy of FITC fluorescence); type: cell-based; conditions: FITC label
Method: as §1, §2, §3, §4

Substance	fluorescence intensity of the tumor cells (FACS) ([1]; CT-26, 1 hour after inoculation, FITC label)	penetration into the cells observed by confocal laser scanning microscope, tumor cell line ([1]; CT-26, FITC label, nuclei stained with Hoechst 33342)	penetration into the cells observed by confocal laser scanning microscope, normal cell line ([2]; nuclei stained with Hoechst 33342)	fluorescence intensity of the normal cells (FACS) [2]
fluorescence-labeled peptide: peptide of Example 1 with the C-terminal region labeled with the fluorescence marker FITC (H-EEEEEEEPLGLAGVSRRRRRRGGRRRRC; also: FITC label on C-terminal region)	increase	observed	not observed	
NH2-EEEEEEEPLGLAG-VSRRRRRRGGRRRR-C-COONH2 (H-EEEEEEEPLGLAGVSRRRRRRGGRRRRC-NH2) [masking domain (EEEEEEE), MMP-cleavable spacer (PLGLAG) and LMWP as protein transduction domain]				the same as that before application of the penetrating peptide
